From paper PMC8491554 (Journal of agricultural and food chemistry, 2021)

Columns and labels:
SARS-CoV-2 Mpro [1] = target: T1, SARS-CoV-2 Mpro (Severe acute respiratory syndrome coronavirus 2, UniProt P0DTD1); type: binding; conditions: for binding capacity in SPR sensorgrams (in words): Supporting Information; for SPR response units (RUs) in sensorgrams, up to: highest response in SPR sensorgrams
SARS-CoV-2 Mpro [2] = target: T1, SARS-CoV-2 Mpro; assay: biochemical; conditions: for inhibition at 2 µM / inhibition at 10 µM / inhibition at 50 µM: read-out: inhibition of SARS-CoV-2 Mpro enzyme activity (inhibition rate)

Row | SMILES | SPR response units (RUs) in sensorgrams, up to (SARS-CoV-2 Mpro [1]) | inhibition at 2 µM (SARS-CoV-2 Mpro [2]) [%] | inhibition at 10 µM (SARS-CoV-2 Mpro [2]) [%] | inhibition at 50 µM (SARS-CoV-2 Mpro [2]) [%] | also measured
1 | O=c1oc2cc(O)ccc2c2ccccc12 [UB, urolithin B] | < 10 RU |  |  |  | binding capacity in SPR sensorgrams (in words) (SARS-CoV-2 Mpro [1]): weak binding capacity
2 | O=C(OC[C@H]1O[C@@H](OC(=O)c2cc(O)c(O)c(OC(=O)c3cc(O)c(O)c(O)c3)c2)[C@H](OC(=O)c2cc(O)c(O)c(OC(=O)c3cc(O)c(O)c(O)c3)c2)[C@@H](OC(=O)c2cc(O)c(O)c(OC(=O)c3cc(O)c(O)c(O)c3)c2)[C@@H]1OC(=O)c1cc(O)c(O)c(OC(=O)c2cc(O)c(O)c(O)c2)c1)c1cc(O)c(O)c(OC(=O)c2cc(O)c(O)c(O)c2)c1 [TA, tannic acid] | up to 643 RU |  |  |  | inhibition of SARS-CoV-2 Mpro enzyme activity (inhibition rate) (SARS-CoV-2 Mpro [2]; 2 μM): 13%; inhibition of SARS-CoV-2 Mpro enzyme activity (inhibition rate) (SARS-CoV-2 Mpro [2]; 10 μM): 73%; inhibition of SARS-CoV-2 Mpro enzyme activity (inhibition rate) (SARS-CoV-2 Mpro [2]; 50 μM): 100%
3 | O=C(O)c1cc(O)c(O)c(O)c1 [GLA, gallic acid] | up to 30 RU |  |  |  | 
4 | Oc1cccc(O)c1O [PYG, pyrogallol] |  | 20 |  |  | reference binding signal (SARS-CoV-2 Mpro [1]; CM5 sensor chip): less than 10%; reference signal (reference binding RUs over binding level RUs) (SARS-CoV-2 Mpro [1]; PEG sensor chip): 64%
5 | O=c1oc2c(O)c(O)cc3c(=O)oc4c(O)c(O)cc1c4c23 [EA, ellagic acid] |  | 3 | 28 | 57 | 
6 | O=c1c(O)c(-c2ccc(O)c(O)c2)oc2cc(O)cc(O)c12 [quercetin, reference compound] | up to 103 RU |  |  |  | 
7 | O=C(OC[C@H]1O[C@@H](OC(=O)c2cc(O)c(O)c(O)c2)[C@H](OC(=O)c2cc(O)c(O)c(O)c2)[C@@H](OC(=O)c2cc(O)c(O)c(O)c2)[C@@H]1OC(=O)c1cc(O)c(O)c(O)c1)c1cc(O)c(O)c(O)c1 [PGG, 1,2,3,4,6-penta-O-galloyl-ß-D-glucose] | ≤ 1186 RU | 14 | 73 | 100 | 
8 | O=C1O[C@H]2[C@@H]3OC(=O)c4cc(O)c(O)c(O)c4-c4c(O)c(O)c5oc(=O)c6c(c(O)c(O)c7oc(=O)c4c5c76)-c4c(cc(O)c(O)c4O)C(=O)OC[C@H]3OC(O)[C@@H]2OC(=O)c2cc(O)c(O)c(O)c2-c2c1cc(O)c(O)c2O (mixture of isomers) [PA, punicalagin] |  | 2 | 59 | 100 | 
9 | O=c1oc2cc(O)ccc2c2ccc(O)cc12 [UA, urolithin A] |  |  |  |  | binding capacity in SPR sensorgrams (in words) (SARS-CoV-2 Mpro [1]): undetectable binding capacity
